Source: patent EP2918282A1, “Pharmaceutical composition for the treatment of virus diseases, such as flu” (OOO "CytoNIR", priority 2014, dated 2015)

Tested on: Grippevirus A/Vladivostok/2/09 (H1N1)
Test: Survival of mice infected with a lethal dose of influenza virus, peroral treatment for 5 days
Assay type: in vivo, Mäuse
Settings: virus strain resistant to Oseltamyvir; 30 mg/kg
Source text: Die Wirksamkeit des Mittels wurde an einem Modell der Überlebensfähigkeit von angesteckten Versuchstieren geprüft. Die Versuchstiere wurden mit einer tödlichen Dosis des Grippevirus A/Vladivostok/2/09 (H1N1) angesteckt. Während der Forschung wurde das erfindungsgemäße Mittel 5 Tage lang peroral verabreicht.
Als Versuchstiere wurden weiße männliche Auszucht-Mäuse mit einem Körpergewicht von 16 - 18 g aus der Aufzuchtstation Rappolovo der Russischen Akademie der medizinischen Wissenschaften verwendet. Vor der Prüfung wurden die Versuchstiere einer Quarantäne in einem Vivarium im Laufe einer Woche unterzogen. Die Versuchstiere wurden unter genormten Klima-Bedingungen mit ausgewogener Fütterung gehalten. Jede Gruppe enthielt je 30 Versuchstiere.
Um eine versuchsmäßige Grippe-Infektion zu simulieren, wurde ein bestimmter Virusstamm eingesetzt. Die Versuchstiere wurden mit dem A/Vladivostok/2/09 (H1N1)-Virus in Mengen von 1 und 10 DL50 intranasal angesteckt.
Die Behandlung der angesteckten Mäuse wurde 24 Stunden nach der Ansteckung begonnen. Die Präparate wurden intragastrisch mittels einer Sonde verabreicht. Bei diesen Präparaten handelte es sich um eine Lösung in einer physiologischen Kochsalzlösung. Die Dosis des Arzneimittels wurde pro ein kg des Körpergewichts des Tieres berechnet. Die Behandlung wurde im Laufe von 5 Tagen vorgenommen. […]

Question: For `CCOC(=O)C1=C[C@@H](OC(CC)CC)[C@H](NC(C)=O)[C@@H](N)C1` [Tamiflu, Oseltamyvir], which Schutzsteigerung is on record?
Answer: keine zuverlässige Schutzsteigerung
